pEC50: −log10 of the molar value. Read-outs that look alike come from different tables or passages of the source.
Key:
[1] = biological target: T1, hS1P1R (hEdg1) membrane protein (Homo sapiens, UniProt P21453); test: hS1P1R GTPγS binding assay (Assay 3a); type: biochemical
T1 construct: purchased Lonza
Experimental: Assay 3a: The hS1P1R GTPγS binding assay was carried out at room temperature in 96 well non-binding surface assay plates. The reaction in each well contained 4 μg hS1P1R (hEdg1) membrane protein (Lonza), 30 μM GDP, 0.1 nM [^35S]GTPγS, 0.25% fatty acid free BSA, and serially diluted hS1P1R agonist compound in 200 μL assay buffer (25 mM Tris-HCl PH 7.9, 100 mM NaCl, 3 mM MgCl2, and 0.2 mM EGTA). After one hour of incubation, 0.9 mg of WGA (Wheat Germ Agglutinin) SPA beads in 50 μL of assay buffer was added to each well. The SPA beads were spun down after an additional one hour incubation. The radioactivity of the bound GTPγS was counted by reading the assay plate using a MicroBeta.

S1P1 = biological target: T2, S1P1 (Homo sapiens, UniProt P21453); test: Tango β-arrestin recruitment assay in U2OS cells (Assay 2b); type: cell-based
T2 construct: host or cells: U2OS
T2 sequence (P32121 whole entry): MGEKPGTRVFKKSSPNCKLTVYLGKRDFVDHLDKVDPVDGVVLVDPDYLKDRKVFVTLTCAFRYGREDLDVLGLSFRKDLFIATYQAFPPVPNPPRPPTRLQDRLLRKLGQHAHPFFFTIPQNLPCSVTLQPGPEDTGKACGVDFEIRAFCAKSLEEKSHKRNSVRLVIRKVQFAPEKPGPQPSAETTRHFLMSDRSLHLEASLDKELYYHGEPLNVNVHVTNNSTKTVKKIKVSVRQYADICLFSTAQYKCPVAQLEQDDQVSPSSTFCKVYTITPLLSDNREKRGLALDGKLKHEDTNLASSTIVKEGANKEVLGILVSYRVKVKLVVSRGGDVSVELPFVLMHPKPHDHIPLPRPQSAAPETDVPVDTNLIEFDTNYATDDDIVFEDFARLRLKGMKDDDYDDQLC
T2 sequence (P21453 whole entry): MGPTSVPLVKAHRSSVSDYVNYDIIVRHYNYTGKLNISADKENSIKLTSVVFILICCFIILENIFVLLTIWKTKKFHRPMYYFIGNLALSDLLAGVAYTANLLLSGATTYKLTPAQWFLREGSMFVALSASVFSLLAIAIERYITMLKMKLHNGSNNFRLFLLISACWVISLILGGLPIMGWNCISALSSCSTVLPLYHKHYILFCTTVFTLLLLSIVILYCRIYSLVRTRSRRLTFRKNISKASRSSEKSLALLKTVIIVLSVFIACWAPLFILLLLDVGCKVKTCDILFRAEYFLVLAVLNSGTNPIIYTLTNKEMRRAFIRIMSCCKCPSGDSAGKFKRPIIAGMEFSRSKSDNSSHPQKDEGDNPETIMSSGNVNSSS
Description: (§1) For the Tango™ β-arrestin recruitment assay, the cytoplasmic C-terminus of S1P1 was tethered to the tTA transcriptional activator with a linker that contains a cleavage site for the N1a protease from tobacco etch virus (TEV protease). The C-terminus of the human β-arrestin2 protein was fused to TEV protease. Binding of an agonist recruits the βl -arrestin-TEV fusion protein to the receptor resulting in cleavage of the linker and released of tTA to enter the nucleus and subsequently activated a tTA-dependent luciferase reporter gene.
Assay 2b: Alternatively, U2OS cells expressing the reporter gene and S1P1 (Invitrogen) were added to the wells of a 384-well white opaque bottom assay plate (PerkinElmer) at […]. The cells were serum starved for 48 h in Freestyle medium (Invitrogen). Test compounds were tested at maximum concentrations of 1 μM for the agonist assay. Compounds were diluted in DMSO (10 concentration points, 3-fold each) and added to the assay plate at a 1% final DMSO concentration. The efficacy control was 1 μM S1P (Avanti). For each compound, there were duplicate assay plates and each assay plate had duplicate wells per concentration point. The plate was incubated overnight at 37° C. The GeneBLAzer β-lactamase assay reagent (Invitrogen) was added and the plates were incubated for an additional 2 h at room temperature. Fluorescence was measured using an EnVision plate reader (PerkinElmer, Waltham, Mass.) at an excitation wavelength of 409 nm and emission wavelengths of 460 nm and 530 nm. The emission intensity at each wavelength was background subtracted against wells containing medium only and the F460 nm/F530 nm ratio determined for each concentration of the test compounds. Percent activity was calculated as [(test compound ratio−DMSO ratio)/(positive control ratio−DMSO ratio)*100], where the positive control and DMSO ratios are from cells incubated with the efficacy control 1 μM S1P and 1% DMSO, respectively. The percent activities were plotted against compound concentration to determine EC50 using XLFit (IDBS).

S1P3 = biological target: T3, S1P3 (Homo sapiens, UniProt Q99500); test: S1P3 Tango β-arrestin recruitment assay in HEK293 cells (Assay 5); type: cell-based; settings: read-out: Assay 5 EC50
T3 construct: host or cells: HEK293 (transient transfection)
T3 sequence (P32121 whole entry): as the sequence (P32121 whole entry) above
T3 sequence (Q99500 whole entry): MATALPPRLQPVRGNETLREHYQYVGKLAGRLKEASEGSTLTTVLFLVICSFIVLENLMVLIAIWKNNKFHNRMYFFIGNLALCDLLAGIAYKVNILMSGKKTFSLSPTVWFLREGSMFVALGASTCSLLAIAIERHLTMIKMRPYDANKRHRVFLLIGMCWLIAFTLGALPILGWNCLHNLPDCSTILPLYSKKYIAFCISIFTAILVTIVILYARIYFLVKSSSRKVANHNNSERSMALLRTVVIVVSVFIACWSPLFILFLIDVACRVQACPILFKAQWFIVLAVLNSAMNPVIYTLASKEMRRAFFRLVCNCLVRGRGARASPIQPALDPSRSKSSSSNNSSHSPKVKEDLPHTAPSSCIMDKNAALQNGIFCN
Description: as §1
Assay 2a: Frozen HEK293 cells transiently transfected with receptor cDNAs for S1P1 (Invitrogen) are thawed and suspended in 10 mL of Pro293a-CDM culture medium (Invitrogen) supplemented with 4 mM L-Glutamine (Invitrogen), 1× Pen/Strep (100 units/mL penicillin and 100 μg/mL streptomycin, Invitrogen) and 0.1% fatty acid free BSA (Sigma-Aldrich). Cells are added to the wells of a 384-well white opaque bottom assay plate (PerkinElmer) at 3,000-6,000 cells per well and the plate is incubated for approximately 4 h in a 37° C. incubator. Test compounds are tested at maximum concentrations of 10 μM for the agonist assays. Compounds are diluted in DMSO (10 concentration points, 3-fold each) and added to the assay plate at a 1% final DMSO concentration. For each compound, there are duplicate assay plates and each assay plate has duplicate wells per concentration point. The plate is incubated at 37° C. for 30 min. The efficacy control is 5 μM S1P (Avanti). Following agonist addition, the assay plates are incubated in a 37° C. incubator for 16-18 h. Luciferase assay reagent is added and luminescence measured in an EnVision plate reader (PerkinElmer). To determine agonist activity, percent activity is calculated as [(test compound−background)/(positive control−background)*100], where background is the luminescence of the DMSO alone control and the positive control is the luminescence from cells incubated with the efficacy control 5 μM S1P. The percent activities are plotted against compound concentration to determine EC50 using XLFit (IDBS).
This assay was conducted using the procedures described in Assay 2a, replacing S1P1 with S1P3.

[2] = biological target: T4, hS1PR5 (hEdg8) membrane protein (Homo sapiens, UniProt Q9H228); test: hS1P5R GTPγS binding assay (Assay 4); type: biochemical
T4 construct: expressed in transfected cells; host or cells: CHO
T4 sequence (Q9H228 whole entry): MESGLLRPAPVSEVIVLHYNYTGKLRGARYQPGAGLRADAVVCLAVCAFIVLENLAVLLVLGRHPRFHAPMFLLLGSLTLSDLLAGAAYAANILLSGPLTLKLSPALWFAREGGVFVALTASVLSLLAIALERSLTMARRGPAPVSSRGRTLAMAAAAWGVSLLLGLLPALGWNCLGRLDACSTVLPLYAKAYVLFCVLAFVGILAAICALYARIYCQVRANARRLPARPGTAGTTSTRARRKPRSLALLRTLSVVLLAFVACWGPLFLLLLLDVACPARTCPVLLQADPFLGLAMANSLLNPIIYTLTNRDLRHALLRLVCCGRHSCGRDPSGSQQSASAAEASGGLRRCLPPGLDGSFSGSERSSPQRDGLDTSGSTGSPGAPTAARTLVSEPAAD
Experimental: The hS1PR5 GTPγS binding assay was carried out at room temperature in 96-well non-binding surface assay plates. The reaction in each well contained 5 μg hS1PR5 (hEdg8) membrane protein from CHO cells expressing hS1PR5, 30 μM GDP, 0.1 nM [^35S]GTPγS, 0.25% fatty acid free BSA, and serially-diluted Compound of the Invention in 200 μL assay buffer (25 mM Tris-HCl PH 7.9, 100 mM NaCl, 3 mM MgCl2, and 0.2 mM EGTA). After one hour of incubation, 0.9 mg of WGA (Wheat Germ Agglutinin) SPA beads in 50 μL of assay buffer was added to each well. The SPA beads were spun down after an additional one hour incubation. The radioactivity of the bound GTPγS was counted by reading the assay plate using a MicroBeta.

T1 sequence (P21453 whole entry): as the sequence (P21453 whole entry) above

Row | pEC50 [1] | pEC50 (S1P1; read-out: Assay 2b EC50) | pEC50 (S1P3) | pEC50 [2] | pEC50 (S1P1; * = rEC50 measured rather than EC50, read-out: Assay 2b rEC50 (relative EC50, cells marked *)) | Molecule
1 | < 5.00 | 6.60 to 7.30 |  |  |  | NC(CO)COc1cc(Cl)c(-c2nnc(-c3cn4ccsc4n3)s2)cc1F (stereo not shown) [Entry 4, 2-amino-3-{[5-chloro-2-fluoro-4-(5-imidazo[2,1-b][1,3]thiazol-6-yl-1,3,4-thiadiazol-2-yl)phenyl]oxy}propan-1-ol]
2 | 6.60 to 7.30 | 5.55 to 6.60 |  |  |  | N[C@H](CO)COc1cc(Cl)c(-c2nnc(-c3ccc(OC(F)(F)F)cc3)s2)cc1F [Entry 7, (2R)-2-amino-3-{[5-chloro-2-fluoro-4-(5-{4-[(trifluoromethyl)oxy]phenyl}-1,3,4-thiadiazol-2-yl)phenyl]oxy}propan-1-ol]
3 | 6.60 to 7.30 | 5.55 to 6.60 |  |  |  | N[C@H](CO)COc1cc(Cl)c(-c2nnc(-c3ccc(OC(F)(F)F)c(Cl)c3)s2)cc1F [Entry 8, (2R)-2-amino-3-{[5-chloro-4-(5-{3-chloro-4-[(trifluoromethyl)oxy]phenyl}-1,3,4-thiadiazol-2-yl)-2-fluorophenyl]oxy}propan-1-ol]
4 | 7.30 to 8.00 | ≥ 8.00 | ≥ 6.60 |  |  | CC(C)Oc1ccc(-c2nnc(-c3cc(F)c(OCC(N)CO)cc3Cl)s2)nc1Cl (stereo not shown) [Entry 14, 2-amino-3-{[5-chloro-4-(5-{6-chloro-5-[(1-methylethyl)oxy]pyridin-2-yl}-1,3,4-thiadiazol-2-yl)-2-fluorophenyl]oxy}propan-1-ol]
5 | 5.55 to 6.60 | 5.55 to 6.60 |  | 5.55 to 6.60 |  | N[C@H](CO)COc1cc(Cl)c(-c2nnc(-c3cc(Cl)cc(Br)c3)s2)cc1F [Entry 23, (2R)-2-amino-3-({4-[5-(3-bromo-5-chlorophenyl)-1,3,4-thiadiazol-2-yl]-5-chloro-2-fluorophenyl}oxy)propan-1-ol]
6 | 6.60 to 7.30 | 5.55 to 6.60 |  | 5.55 to 6.60 |  | CC(C)Oc1c(Cl)cc(-c2nnc(-c3cc(F)c(OC[C@H](N)CO)cc3Cl)s2)cc1Cl [Entry 26, (2R)-2-amino-3-{[5-chloro-4-(5-{3,5-dichloro-4-[(1-methylethyl)oxy]phenyl}-1,3,4-thiadiazol-2-yl)-2-fluorophenyl]oxy}propan-1-ol]
7 | 6.60 to 7.30 | 5.55 to 6.60 |  |  |  | CC(C)Oc1cc(Br)cc(-c2nnc(-c3cc(F)c(OC[C@H](N)CO)cc3Cl)s2)c1 [Entry 27, (2R)-2-amino-3-{[4-(5-{3-bromo-5-[(1-methylethyl)oxy]phenyl}-1,3,4-thiadiazol-2-yl)-5-chloro-2-fluorophenyl]oxy}propan-1-ol]
8 | 6.60 to 7.30 | 6.60 to 7.30 | < 5.00 |  |  | N[C@H](CO)COc1cc(Cl)c(-c2nnc(-c3cc(Br)cc(OC(F)(F)F)c3)s2)cc1F [Entry 28, (2R)-2-amino-3-{[4-(5-{3-bromo-5-[(trifluoromethyl)oxy]phenyl}-1,3,4-thiadiazol-2-yl)-5-chloro-2-fluorophenyl]oxy}propan-1-ol]
9 | 5.55 to 6.60 | 5.55 to 6.60 |  | 5.00 to 5.55 |  | N[C@H](CO)COc1cc(Cl)c(-c2nnc(-c3cc(Br)cc(Br)c3)s2)cc1F [Entry 30, (2R)-2-amino-3-({5-chloro-4-[5-(3,5-dibromophenyl)-1,3,4-thiadiazol-2-yl]-2-fluorophenyl}oxy)propan-1-ol]
10 | 6.60 to 7.30 | ≥ 8.00 | ≥ 6.60 |  |  | CC(C)N(C)c1cc(-c2nnc(-c3cc(F)c(OC[C@@H](N)CO)cc3Cl)s2)cc(Cl)n1 [Entry 31, (2S)-2-amino-3-{[5-chloro-4-(5-{2-chloro-6-[methyl(1-methylethyl)amino]pyridin-4-yl}-1,3,4-thiadiazol-2-yl)-2-fluorophenyl]oxy}propan-1-ol]
11 | 7.30 to 8.00 | ≥ 8.00 | ≥ 6.60 |  |  | CC(C)Oc1ccc(-c2nnc(-c3cc(F)c(OC[C@@H](N)CO)cc3Cl)s2)nc1Cl [Entry 33, (2S)-2-amino-3-{[5-chloro-4-(5-{6-chloro-5-[(1-methylethyl)oxy]pyridin-2-yl}-1,3,4-thiadiazol-2-yl)-2-fluorophenyl]oxy}propan-1-ol]
12 | 7.30 to 8.00 | 6.60 to 7.30 | < 5.00 |  |  | CC(C)Oc1ccc(-c2nnc(-c3ccc(OC[C@H](N)CO)cc3Cl)s2)cc1Cl [Entry 34, (2R)-2-amino-3-{[3-chloro-4-(5-{3-chloro-4-[(1-methylethyl)oxy]phenyl}-1,3,4-thiadiazol-2-yl)phenyl]oxy}propan-1-ol]
13 | 7.30 to 8.00 | 6.60 to 7.30 |  | 6.60 to 7.30 |  | CC(C)Oc1ccc(-c2nnc(-c3cc(F)c(OC[C@H](N)CO)cc3Cl)s2)cc1F [Entry 42, (2R)-2-amino-3-{[5-chloro-2-fluoro-4-(5-{3-fluoro-4-[(1-methylethyl)oxy]phenyl}-1,3,4-thiadiazol-2-yl)phenyl]oxy}propan-1-ol]
14 | 6.60 to 7.30 | 5.55 to 6.60 |  | 5.55 to 6.60 |  | CC(C)Nc1cc(-c2nnc(-c3cc(F)c(OC[C@H](N)[C@H](C)O)cc3Cl)s2)ccn1 [Entry 58, (2S,3S)-3-amino-4-{[5-chloro-2-fluoro-4-(5-{2-[(1-methylethyl)amino]pyridin-4-yl}-1,3,4-thiadiazol-2-yl)phenyl]oxy}butan-2-ol]
15 |  |  |  |  | 5.55 to 6.60 | Cc1cc(-c2nnc(-c3cc(F)c(OC[C@H](N)[C@H](C)O)cc3Cl)s2)cnc1NC(C)C [Entry 66, (2S,3S)-3-amino-4-{[5-chloro-2-fluoro-4-(5-{5-methyl-6-[(1-methylethyl)amino]pyridin-3-yl}-1,3,4-thiadiazol-2-yl)phenyl]oxy}butan-2-ol]
16 |  | 5.55 to 6.60 |  |  |  | N[C@H](CO)COc1cc(Cl)c(-c2nnc(-c3cc(-c4ccccc4)c(C(F)(F)F)s3)s2)cc1F [Entry 84, (2R)-2-amino-3-[(5-chloro-2-fluoro-4-{5-[4-phenyl-5-(trifluoromethyl)-2-thienyl]-1,3,4-thiadiazol-2-yl}phenyl)oxy]propan-1-ol]
17 | 6.60 to 7.30 | 5.55 to 6.60 |  | 5.55 to 6.60 |  | CCCOc1ccc(-c2nnc(-c3cc(F)c(OC[C@H](N)CO)cc3Cl)s2)cc1 [Entry 91, (2R)-2-amino-3-[(5-chloro-2-fluoro-4-{5-[4-(propyloxy)phenyl]-1,3,4-thiadiaozl-2-yl}phenyl)oxy]propan-1-ol]
18 | ≥ 8.00 | ≥ 8.00 |  | 7.30 to 8.00 |  | (1R,2R)-2-amino-3-{[5-chloro-2-fluoro- 4-(5-{2-methyl-6-[(1- methylethyl)amino]pyridin-4-yl}-1,3,4- thiadiazol-2-yl)phenyl]oxy}-1- methylpropyl dihydrogen phosphate [Entry 100]
